Measured values published in US12459914B2, “Compounds and compositions for the treatment of tumors” (FONDAZIONE ISTITUTO ITALIANO DI TECNOLOGIA, priority 2019, dated 2025).

Experiments:
[1] = tested on: Homologous recombination (HR) in BxPC3 cells; experiment: Homologous recombination assay (HR); format: cell-based; conditions: Homo sapiens; for inhibition at 20 µM: BXPC-3, at 20 μM
Procedure: Homologous recombination (HR) was assessed by using a commercially available assay (Norgen). This assay is based on cell co-transfection with two plasmids that, upon cells entering, recombinate. The efficiency of HR can be assessed by real time PCR, using primer mixtures included in the assay kit. Different primer mixtures allow differentiation between the original plasmid backbones and their recombination product.
BxPC3 cells (2×10^3 per well) were seeded in a 24-well plate and allowed to adhere overnight. Co-transfection with the two plasmids was performed in Lipofectamine 2000 (Invitrogen) for 5 h, according to the manufacturer's instructions. During transfection cells were exposed at different doses of BRCA2-Rad51 disruptors, dissolved in RPMI without serum in the presence of 0.6% DMSO.
After washing with PBS, cells were harvested, and DNA was isolated using QIAamp® DNA Mini Kit (Qiagen). Sample concentration was measured using an ONDA Nano Genius photometer.
The thermal cycler (CFX96 ™ Real Time System, BioRad) was programmed as follows: initial denaturation 95° C. for 3 min then 95° C. for 15 sec., 61° C. for 30 sec., 72° C. for 1 min and repeated for 40 cycles. Melt curve analysis was done. Samples were run in triplicate, in 10 μl reaction volume containing 25 ng of template.
In each DNA sample from control and treated cultures, the ΔCt between the recombination product and the backbone plasmids was calculated. HR efficiency was evaluated from the 2^−ΔΔ^Ct value obtained by comparing treated vs control samples.

[2] = target: T1, BRC4/RAD51 interaction (Homo sapiens, UniProt Q06609); experiment: Competitive ELISA assay, disruption of BRC4/RAD51 interaction; format: binding; conditions: human Rad51, biotinylated BRC4 peptide
T1 construct: purchased Creative Biomart (Rad51); Life Technologies (BRC4 peptide)
T1 sequence (Q06609 1-339): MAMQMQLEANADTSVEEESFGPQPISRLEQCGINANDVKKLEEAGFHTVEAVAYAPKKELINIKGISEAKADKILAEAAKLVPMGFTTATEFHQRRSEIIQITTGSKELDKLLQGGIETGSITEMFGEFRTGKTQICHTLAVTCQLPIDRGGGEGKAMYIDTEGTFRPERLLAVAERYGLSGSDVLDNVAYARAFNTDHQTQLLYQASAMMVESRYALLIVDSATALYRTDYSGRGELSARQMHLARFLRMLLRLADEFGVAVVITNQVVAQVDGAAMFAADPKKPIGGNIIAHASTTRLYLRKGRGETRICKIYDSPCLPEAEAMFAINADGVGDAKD
Procedure: A competitive ELISA screening assay using biotinylated BRC4 peptide to disrupt the BRC4/RAD51 interaction was performed by modifying the method described by Rajendra et al. (Nucleic Acids Res. 38 (2010) 82-96). BRC4-biotinylated peptide (N-term Biotin[…] from Life Technologies) was used to coat 384-well plates (Nunc). After washing with PBS containing 0.05% Tween-20 (PBST), and blocking with the solution BSA 1%/PBST, overnight hybridization with human Rad51 protein (NP_002866 Creative Biomart, NY) was performed. Test compounds were added in dose-response from […] in triplicate with constant DMSO 1%. Antibody raised against Rad51 (Millipore) and HRP-secondary antibody staining to develop the 3,30,5,50-tetramethyllbenzidine signal (Sigma) quenched with 1M HCl was used as the assay readout. Colorimetric measure was read on Victor5 (PerkinElmer) plate Reader. BRC4 and Rad51 were included in the assay as positive control. Results were analyzed using GraphPad Software.

[3] = tested on: BxPC-3 cells; experiment: Cell viability assay (CellTiter Glo); format: cell-based; conditions: Homo sapiens, 72 h
Procedure: (§1) BxPC-3 cells were grown in RPMI 1640 containing 10% FBS, 100 U/ml penicillin/streptomycin, 2 mM glutamine. All media and supplements were from Sigma-Aldrich. Cultures were routinely tested for Mycoplasma contamination. Treatments (Olaparib and BRCA2-Rad51 disruptors) were administered in culture medium supplemented with 0.6% DMSO. The same amount of DMSO was added to the control, untreated cultures.
(§2) Cell viability was assessed by CellTiter Glo, Luminescent Cell Viability Assay. Briefly, BxPC-3 cells (1×10^4/well) were plated in white 96-well plates with clear bottom and treated for 72 h with olaparib (10 μM) or with the BRCA2-Rad51 disruptors, given alone or in combination. After treatments, the plate was allowed to equilibrate at room temperature for 30 min and the CellTiter-Glo reactive was directly added to each well. The plate was kept on a shaker for 2 min to induce cell lysis and its luminescence was measured by using a Fluoroskan Ascent FL reader (Labsystems) using manufacturer's instructions.

[4] = tested on: BxPC-3 cells; experiment: Association with olaparib (given alone or in combination), cell viability / cytotoxicity; format: cell-based; conditions: olaparib 10 μM, 72 h
Procedure: as §1, §2
Cell death was assessed by applying the CellTox™ Green Cytotoxicity assay (Promega). Briefly, BxPC-3 (1×10^4/well) were plated in black 96-well plates with clear bottom and treated for 72 h with olaparib (10 μM) or with the BRCA2-Rad51 disruptors, given alone or in combination. At the end of treatment, the CellTox™ dye was added to cell cultures and the green fluorescence signal, which is produced by the binding interaction with dead cell DNA, was measured following the manufacturer's instructions. The fluorescence signal was detected using the EnSpire 2300 Multilabel Reader (Perkin Elmer); for each sample, the obtained signal was normalized on the number of viable cells, detected by the CellTiterGlo reagent.

| EC50 [2] | EC50 [3] | Structure (SMILES) | inhibition at 20 µM [1] | inhibition at 40 µM ([1]; BXPC-3, at 40 μM) | Olaparib Assoc. [4] | inhibition at 5 µM ([1]; BXPC-3, at 5 μM) |
| --- | --- | --- | --- | --- | --- | --- |
| 25 µM | 79.2 µM | COc1ccc(C2CC(c3c(Cc4ccccc4)c4cc(Cl)ccc4[nH]c3=O)=NN2C(=O)CCC(=O)O)cc1F (stereo not drawn) [d.66, 4-[5-(4-benzyl-6-chloro-2-oxo-1H-quinolin-3-yl)-3-(3-fluoro-4-methoxy-phenyl)-3,4-dihydropyrazol-2-yl]-4-oxo-butanoic acid] | 6.15% |  |  |  |
| 17 µM | 44 µM | CCn1cc2cc(-c3ccc(C4CC(c5c(-c6ccccc6)c6cc(Cl)ccc6[nH]c5=O)=NN4C(=O)CCC(=O)O)cc3)ccc2n1 (stereo not drawn) [d.46, 4-[5-(6-chloro-2-oxo-4-phenyl-1H-quinolin-3-yl)-3-[4-(2-ethylindazol-5-yl)phenyl]-3,4-dihydropyrazol-2-yl]-4-oxo-butanoic acid] |  | 91.7% | synergy |  |
| 0.95 µM | 11 µM | CCCn1ncc2cc(C3CC(c4c(-c5ccccc5)c5cc(Cl)ccc5[nH]c4=O)=NN3C(C)=O)ccc21 (stereo not drawn) [d.34, 3-[2-acetyl-3-(1-propylindazol-5-yl)-3,4-dihydropyrazol-5-yl]-6-chloro-4-phenyl-1H-quinolin-2-one] |  |  |  | 83% |
| 75 µM | 144 µM | O=C(O)CCC(=O)N1N=C(c2c(-c3ccccc3)c3cc(Cl)ccc3[nH]c2=O)CC1c1cccnc1 (stereo not drawn) [d.98, 4-(3-(6-chloro-2-oxo-4-phenyl-1,2-dihydroquinolin-3-yl)-5-(pyridin-3-yl)-4,5-dihydro-1H-pyrazol-1-yl)-4-oxobutanoic acid] | 22% |  |  |  |
| 2 µM | > 20 µM | Cn1ccc2cc(C3CC(c4c(-c5ccccc5)c5cc(Cl)ccc5[nH]c4=O)=NN3C(=O)CCC(=O)O)ccc21 (stereo not drawn) [d.22, 4-[5-(6-chloro-2-oxo-4-phenyl-1H-quinolin-3-yl)-3-(1-methylindol-5-yl)-3,4-dihydropyrazol-2-yl]-4-oxo-butanoic acid] |  |  | synergy |  |
| 90 µM | 28.4 µM | O=C(O)CCC(=O)N1N=C(c2c(Cc3ccccc3)c3cc(Cl)ccc3[nH]c2=O)CC1c1ccc(-c2ccc(Cl)cc2)cc1 (stereo not drawn) [d.84, 4-[5-(4-benzyl-6-chloro-2-oxo-1H-quinolin-3-yl)-3-[4-(4-chlorophenyl)phenyl]-3,4-dihydropyrazol-2-yl]-4-oxo-butanoic acid] | 21.7% |  |  |  |
| > 100 µM | 76 µM | COc1ccc(-c2c(C3=NN(C(=O)CCC(=O)O)C(c4ccc(F)cc4)C3)c(=O)[nH]c3ccc(Cl)cc23)cc1 (stereo not drawn) [d.19, 4-[5-[6-chloro-4-(4-methoxyphenyl)-2-oxo-1H-quinolin-3-yl]-3-(4-fluorophenyl)-3,4-dihydropyrazol-2-yl]-4-oxo-butanoic acid] |  |  |  |  |
| > 100 µM | 62.6 µM | CCCn1cc2cc(C3CC(c4c(-c5ccccc5)c5cc(Cl)ccc5[nH]c4=O)=NN3C(=O)CCC(=O)O)ccc2n1 (stereo not drawn) [d.35, 4-[5-(6-chloro-2-oxo-4-phenyl-1H-quinolin-3-yl)-3-(2-propylindazol-5-yl)-3,4-dihydropyrazol-2-yl]-4-oxo-butanoic acid] |  |  |  |  |
| > 100 µM | > 50 µM | CCn1ncc2cc(C3CC(c4c(-c5ccccc5)c5cc(Cl)ccc5[nH]c4=O)=NN3C(=O)CCC(=O)O)ccc21 (stereo not drawn) [d.31, 4-[5-(6-chloro-2-oxo-4-phenyl-1H-quinolin-3-yl)-3-(1-ethylindazol-5-yl)-3,4-dihydropyrazol-2-yl]-4-oxo-butanoic acid] |  |  |  |  |
| 38 µM | > 50 µM | O=C(O)CCC(=O)N1N=C(c2c(-c3ccccc3)c3cc(Cl)ccc3[nH]c2=O)CC1c1ccc(F)cc1 (stereo not drawn) [d.1, 4-[5-(6-chloro-2-oxo-4-phenyl-1H-quinolin-3-yl)-3-(4-fluorophenyl)-3,4-dihydropyrazol-2-yl]-4-oxo-butanoic acid] |  |  |  |  |
| > 100 µM | 23 µM | CC(=O)N1N=C(c2c(-c3ccccc3)c3cc(Cl)ccc3[nH]c2=O)CC1c1ccco1 (stereo not drawn) [d.21, 3-[2-acetyl-3-(2-furyl)-3,4-dihydropyrazol-5-yl]-6-chloro-4-phenyl-1H-quinolin-2-one] |  |  |  |  |
| 24 µM | 13.7 µM | CCC(=O)N1N=C(c2c(-c3ccccc3)c3cc(Cl)ccc3[nH]c2=O)CC1c1ccccc1 (stereo not drawn) [d.48, 6-chloro-4-phenyl-3-(3-phenyl-2-propanoyl-3,4-dihydropyrazol-5-yl)-1H-quinolin-2-one] |  |  |  |  |
| 70 µM | 23.2 µM | O=C(O)CCC(=O)N1N=C(c2c(Cc3ccccc3)c3cc(Cl)ccc3[nH]c2=O)CC1c1ccc(Cl)cc1 (stereo not drawn) [d.55, 4-[5-(4-benzyl-6-chloro-2-oxo-1H-quinolin-3-yl)-3-(4-chlorophenyl)-3,4-dihydropyrazol-2-yl]-4-oxo-butanoic acid] |  |  |  |  |
